The source of these data is ChEMBL document CHEMBL1201862, “PubChem BioAssay data set” (2004).

Among the test systems are 786-0; COLO 205; HCT-15; HOP-92; HT-29; Malme-3M; OVCAR-5; OVCAR-8; RXF 393; SF-295; SK-MEL-2; SK-MEL-5; SN12C; SNB-19; UACC-257; UACC-62; CCRF-CEM; LOX IMVI.
Holding throughout (experiment): growth of human tumour cells (NCI), 48 h

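96-well plates; 48 h exposure; 5 concentrations. Endpoints by linear interpolation between flanking doses. Not reached: highest tested concentration assigned. GI50 = concentration required for 50% inhibition of growth.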 Calls of active or inactive are those of the source. Cut-off read from the data, not from the text of the source: active = GI50 up to about 1.1 µM and inactive = higher.

On to `CC(C)OCN1COCN/C1=N/C#N`, for which the GI50 was 98.6 µM (inactive) with 786-0; 20.8 µM (inactive) in the assay with COLO 205; 17.7 µM in the assay on HCT-15; > 100 µM (inactive) with HOP-92; 78.3 µM (inactive) with HT-29; > 100 µM (inactive) with Malme-3M. Also, the GI50 with OVCAR-5, in the assay with OVCAR-8, in the assay with RXF 393, in the assay on SF-295, in the assay on SK-MEL-2 and in the assay with SK-MEL-5 was > 100 µM (inactive) each time. Moreover, the GI50 in the assay with SN12C, in the assay on SNB-19, with UACC-257 and in the assay on UACC-62 was > 100 µM (inactive) each time.
`CCOC(=O)c1ccc(/C(C)=N/NC(N)=S)cc1`: the GI50 is > 100 µM (inactive) in the assay on 786-0; > 100 µM (inactive) with CCRF-CEM; > 100 µM (inactive) with COLO 205; more than 100 µM with HCT-15; > 100 µM (inactive) in the assay on HOP-92; > 100 µM (inactive) in the assay with LOX IMVI. Besides, the GI50 in the assay with OVCAR-8, in the assay with RXF 393, with SF-295, in the assay on SK-MEL-5, in the assay with SN12C and with SNB-19 was > 100 µM (inactive) in each case. For the same compound, the GI50 in the assay on UACC-62 was > 100 µM (inactive).
Take `CCCCOCN/C(N)=N/C#N`: the GI50 in the assay with 786-0 was 33.9 µM (inactive); with COLO 205 it was 38.3 µM (inactive); in the assay with HCT-15, 21.9 µM; in the assay on HOP-92 it was > 100 µM (inactive); in the assay on HT-29, > 100 µM (inactive); in the assay on LOX IMVI it was 21.5 µM (inactive). The GI50 with Malme-3M, in the assay on OVCAR-5, in the assay on OVCAR-8, with RXF 393, with SF-295 and in the assay on SK-MEL-2 was > 100 µM (inactive) in each case. Besides, the GI50 with SK-MEL-5, with SN12C, in the assay with SNB-19, in the assay with UACC-257 and with UACC-62 was > 100 µM (inactive) throughout.
Consider `NC(=O)C#CC#CC#CCO`, for which the GI50 with 786-0 is 1.59 µM (inactive); with CCRF-CEM it was 0.843 µM (active); with COLO 205 it was 1.23 µM (inactive); with HCT-15, 1.8 µM; in the assay on HOP-92, 2.28 µM (inactive); in the assay on HT-29, 2.39 µM (inactive). Moreover, the GI50 in the assay with LOX IMVI was 2.09 µM (inactive); with Malme-3M, 1.96 µM (inactive); in the assay with OVCAR-5 it was 18.9 µM (inactive); with OVCAR-8, 1.81 µM (inactive); in the assay on RXF 393 it was 2.09 µM (inactive); with SF-295, 3.94 µM (inactive). The GI50 in the assay on SK-MEL-2 was 2.2 µM (inactive); with SK-MEL-5, 1.98 µM (inactive); in the assay with SN12C, 1.96 µM (inactive); with SNB-19, 14.9 µM (inactive); in the assay with UACC-257, 2.33 µM (inactive); in the assay with UACC-62 it was 1.92 µM (inactive).
As to `CCOC(=O)NC(=O)c1cn(CCCOC(=O)CCCCCCCCCCC(=O)OCCCn2cc(C(=O)NC(=O)OCC)c(=O)[nH]c2=O)c(=O)[nH]c1=O`, the GI50 in the assay on 786-0, in the assay on CCRF-CEM, with COLO 205, with HOP-92, in the assay on HT-29 and with LOX IMVI was > 100 µM (inactive) in each case. The GI50 in the assay on Malme-3M is > 100 µM (inactive); in the assay with OVCAR-5, > 100 µM (inactive); in the assay with OVCAR-8 it was > 100 µM (inactive); in the assay on RXF 393, > 10 µM (inactive); in the assay with SF-295, > 100 µM (inactive); with SK-MEL-2, > 100 µM (inactive). Moreover, the GI50 is > 100 µM (inactive) with SK-MEL-5; > 100 µM (inactive) in the assay on SN12C; 49 µM (inactive) with SNB-19; > 100 µM (inactive) in the assay on UACC-257; > 100 µM (inactive) in the assay on UACC-62.
Regarding `CN(C)/C=N\c1nc(=O)n(C2CCC(CO)O2)cc1F` (stereo not given), the GI50 with 786-0 is > 100 µM (inactive); with CCRF-CEM, > 100 µM (inactive); with COLO 205, > 100 µM (inactive); in the assay with HCT-15 it was more than 100 µM; with HOP-92, > 100 µM (inactive); with HT-29, > 100 µM (inactive). Besides, the GI50 in the assay on LOX IMVI, with Malme-3M, in the assay on OVCAR-5, in the assay on OVCAR-8, in the assay on RXF 393 and with SF-295 was > 100 µM (inactive) in each case. Further, the GI50 in the assay with SK-MEL-2, with SK-MEL-5, with SN12C, with SNB-19 and with UACC-257 was > 100 µM (inactive) each time.
Regarding `O=[N+]([O-])C1Cc2ccccc2OC1c1ccccc1` (stereo not given), the GI50 with 786-0 was 35.3 µM (inactive); in the assay on CCRF-CEM it was 30.8 µM (inactive); in the assay on COLO 205, 69 µM (inactive); with HOP-92, 83.2 µM (inactive); with HT-29 it was 83.8 µM (inactive); with LOX IMVI it was 15.3 µM (inactive). For the same compound, the GI50 in the assay on Malme-3M is > 100 µM (inactive); with OVCAR-5, > 100 µM (inactive); in the assay with OVCAR-8, 89.7 µM (inactive); in the assay on RXF 393, 21.8 µM (inactive); in the assay with SF-295 it was 40.5 µM (inactive); in the assay with SK-MEL-5, > 100 µM (inactive). Further, the GI50 was 21.7 µM (inactive) with SN12C, 41.9 µM (inactive) with SNB-19, > 100 µM (inactive) in the assay on UACC-257 and 55.3 µM (inactive) with UACC-62.
Take `O=S(=O)(c1cc(Cl)ccc1Cl)N1CCN(c2ccc(Cl)c(Cl)c2)CC1`: the GI50 in the assay with 786-0 is 17.9 µM (inactive); in the assay on CCRF-CEM, 44.8 µM (inactive); in the assay with HCT-15, more than 100 µM; with HOP-92 it was 18 µM (inactive); with HT-29 it was 88.1 µM (inactive); in the assay with LOX IMVI, > 100 µM (inactive). Also, the GI50 with Malme-3M was 37.7 µM (inactive); with OVCAR-5 it was > 100 µM (inactive); in the assay with OVCAR-8 it was 23.3 µM (inactive); in the assay with RXF 393, 21 µM (inactive); in the assay with SF-295, 24.9 µM (inactive); in the assay with SK-MEL-5, 22.8 µM (inactive). Moreover, the values for the GI50 in the assay with SN12C, in the assay with SNB-19 and in the assay on UACC-257 were 78.5 µM (inactive), 14.1 µM (inactive) and 33.3 µM (inactive), respectively.
With `COC(=O)C1=C(c2ccc3c(c2)OCO3)OC(c2cc(OC)c(OC)c(OC)c2)C1` (stereo not given), the GI50 is 3.61 µM (inactive) in the assay with 786-0; 3.88 µM (inactive) in the assay on CCRF-CEM; 1.2 µM (inactive) in the assay on COLO 205; 0.664 µM with HCT-15; 5.75 µM (inactive) with HOP-92; 1.29 µM (inactive) with HT-29. Besides, the GI50 in the assay with LOX IMVI was 5.68 µM (inactive); in the assay with Malme-3M, 4.74 µM (inactive); in the assay with OVCAR-5, > 100 µM (inactive); in the assay with OVCAR-8 it was 4.17 µM (inactive); in the assay on RXF 393, 2.81 µM (inactive); with SF-295, 1.5 µM (inactive). The GI50 with SK-MEL-5 was 2.49 µM (inactive); with SN12C it was 4.5 µM (inactive); with SNB-19, 1.59 µM (inactive); with UACC-257, 7.18 µM (inactive); in the assay with UACC-62, 1.81 µM (inactive).
For the compound `CCCCCCCCCC1CC(=O)OC2=C1C(=O)CCC2` (stereo not given), the GI50 in the assay on 786-0, in the assay on CCRF-CEM, in the assay with COLO 205, in the assay on HOP-92, with HT-29 and in the assay on LOX IMVI was > 100 µM (inactive) throughout. Further, the GI50 in the assay on Malme-3M, in the assay with OVCAR-5, with OVCAR-8, with RXF 393, in the assay with SF-295 and with SK-MEL-2 was > 100 µM (inactive) in each case. The GI50 with SK-MEL-5, in the assay with SN12C, in the assay with SNB-19, in the assay on UACC-257 and in the assay on UACC-62 was > 100 µM (inactive) throughout.
With `CCOC(=O)[C@@]12C(C)=CC(=O)O[C@]1(C)C1C(=O)NC(=O)C12` (stereo not given in full), the GI50 in the assay with 786-0 is > 100 µM (inactive); with CCRF-CEM, > 100 µM (inactive); in the assay with COLO 205, > 100 µM (inactive); in the assay with HOP-92 it was 22.1 µM (inactive); in the assay on HT-29, > 100 µM (inactive); with LOX IMVI, > 100 µM (inactive). Moreover, the GI50 in the assay with Malme-3M, with OVCAR-8, with RXF 393, in the assay on SF-295, in the assay with SK-MEL-2 and with SK-MEL-5 was > 100 µM (inactive) throughout. Besides, the GI50 with SNB-19 was > 100 µM (inactive); with UACC-257 it was > 100 µM (inactive); in the assay with UACC-62, 17.4 µM (inactive).
With `[N-]=[N+]=NC1C2CC3C4CC5CC3[C@H](C2)C(C5)C41` (stereo not given in full), the GI50 in the assay with 786-0, in the assay on CCRF-CEM, in the assay with COLO 205, with HOP-92, in the assay on HT-29 and in the assay on LOX IMVI was > 100 µM (inactive) throughout. Besides, the GI50 in the assay on Malme-3M, with OVCAR-5, with OVCAR-8, with RXF 393, in the assay with SF-295 and with SK-MEL-2 was > 100 µM (inactive) each time. For the same compound, the GI50 in the assay with SK-MEL-5, with SN12C, with SNB-19, in the assay on UACC-257 and in the assay with UACC-62 was > 100 µM (inactive) each time.
